These results are taken from PubChem BioAssay (NCI).

Among the test systems are U251 CNS; SF-539 CNS; A549 NSCLC; NCI-H522 lung; NCI-H460 lung; K-562 leukemia; KM12 colon; NCI/ADR-RES ovarian.
Experiment in all cases: NCI tumour cell line growth inhibition, 48 h

Several values for one entry are separate records, joined by “and”; a condition that tells them apart may be missing. Equal values may be shown once.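 The compound was tested at five concentrations on cells cultured in 96-well plates, with a 48-hour exposure period. Abbreviation: GI50, concentration required for 50% inhibition of growth. TGI: total growth inhibition.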

Consider `Oc1ccccc1Nc1nc2ccccc2c2occc12`, for which the GI50 in the test on U251 CNS is 12.3 µM; with SF-539 CNS, 10.4 µM; in the test on A549 NSCLC, 14.5 µM; in the test on NCI-H522 lung it was 8.36 µM; in the test on NCI-H460 lung, 14.1 µM; in the test on K-562 leukemia, > 100 µM. In the test on KM12 colon, the GI50 was 12.5 µM. Moreover, the TGI in the test on U251 CNS is 24.7 µM; in the test with SF-539 CNS, 22.1 µM; in the test on A549 NSCLC, 27.5 µM; with NCI-H522 lung, 24.2 µM; in the test with NCI-H460 lung, 27.6 µM; in the test on K-562 leukemia, > 100 µM. Further, the TGI in the test with KM12 colon was found to be 50.7 µM.
Consider `O=C1Nc2ccccc2/C1=C/c1cn(C(=O)c2c(Cl)cccc2Cl)c2ccccc12`, for which the GI50 with U251 CNS is 3.47 µM; with SF-539 CNS it was 4.96 µM; with A549 NSCLC, 3.23 µM; with NCI-H522 lung it was 4.22 µM; in the test on NCI-H460 lung, 2 µM; in the test on K-562 leukemia, 3.14 µM. The GI50 in the test with KM12 colon was 1.76 µM; in the test with NCI/ADR-RES ovarian it was 3.4 µM. Also, the TGI in the test on U251 CNS was 15.5 µM; with SF-539 CNS it was 21.1 µM; in the test with A549 NSCLC, 17.6 µM; with NCI-H522 lung, 17.5 µM; in the test with NCI-H460 lung, 3.97 µM; with K-562 leukemia it was > 100 µM. The TGI in the test with KM12 colon stood at 3.95 µM; with NCI/ADR-RES ovarian, 18 µM.
Consider `CN(C)c1ccc(/C=C/c2ccnc3ccccc23)cc1N`, for which the TGI with U251 CNS is 40.8 µM; with SF-539 CNS, 28.8 µM; in the test on A549 NSCLC, 32.6 µM; with NCI-H460 lung it was 22.3 µM; in the test on K-562 leukemia, 23.6 µM; in the test on KM12 colon, 65.4 µM. This compound returned a TGI in the test with NCI/ADR-RES ovarian of 53.9 µM.
As to `CCCC(=O)Nc1cc([N+](=O)[O-])c([N+](=O)[O-])cc1OC`, the TGI was 29.8 µM in the test with U251 CNS; 37.8 µM in the test on SF-539 CNS; 29.8 µM with A549 NSCLC; 27.6 µM in the test with NCI-H522 lung; 35.4 µM with NCI-H460 lung; > 100 µM in the test with K-562 leukemia. In addition, the TGI in the test with KM12 colon was 27.2 µM; in the test on NCI/ADR-RES ovarian, > 100 µM.
As to `CC(C)=CCc1ccc(O)c(=O)cc1C(C)C`, the GI50 was 0.472 µM in the test on U251 CNS; 0.764 µM in the test on SF-539 CNS; 0.656 µM in the test with A549 NSCLC; 1.22 µM with NCI-H522 lung; 0.42 µM in the test on NCI-H460 lung; 0.466 µM in the test on K-562 leukemia. The results for the GI50 in the test on KM12 colon and with NCI/ADR-RES ovarian were 0.641 µM and 0.336 µM, respectively. The TGI with U251 CNS is > 100 µM; in the test with SF-539 CNS it was > 41.1 µM; in the test with A549 NSCLC, > 100 µM; with NCI-H522 lung, 69.9 µM; with NCI-H460 lung it was > 33.1 µM; in the test on K-562 leukemia it was > 100 µM. Besides, the TGI is > 100 µM in the test on KM12 colon and 2.74 µM in the test on NCI/ADR-RES ovarian.
Consider `COC(=O)c1cc2c3ccccc3n3c(=O)c4cc5cc(OC)c(N(S(=O)(=O)c6ccc(C)cc6)S(=O)(=O)c6ccc(C)cc6)cc5nc4c(n1)c23`, for which the GI50 in the test with U251 CNS was 2.62 µM; in the test with SF-539 CNS, 13 µM; with A549 NSCLC, > 100 µM; in the test with NCI-H460 lung it was > 100 µM; in the test on K-562 leukemia, 47.2 µM; in the test with KM12 colon, > 100 µM. Moreover, the GI50 in the test on NCI/ADR-RES ovarian is > 100 µM. For the same compound, the TGI with U251 CNS was 13.4 µM; with SF-539 CNS, 30.6 µM; in the test on A549 NSCLC, > 100 µM; with NCI-H460 lung, > 100 µM; in the test with K-562 leukemia it was > 100 µM; with KM12 colon, > 100 µM. The TGI in the test on NCI/ADR-RES ovarian was > 100 µM.
`O=C(CC(O)c1ccncc1)c1ccccc1` (stereo not drawn): the GI50 is 28.6 µM in the test with U251 CNS; 19.5 µM in the test with SF-539 CNS; 29 µM with A549 NSCLC; 29.4 µM in the test with NCI-H522 lung; 27.1 µM with NCI-H460 lung; 23.9 µM with K-562 leukemia. Further, the GI50 in the test with KM12 colon is 33.7 µM; in the test on NCI/ADR-RES ovarian, 29.8 µM. The TGI was > 100 µM in the test with U251 CNS; 48.3 µM with SF-539 CNS; > 100 µM in the test with A549 NSCLC; 99.3 µM in the test on NCI-H522 lung; 89.2 µM in the test with NCI-H460 lung; > 100 µM in the test with K-562 leukemia. In addition, the TGI with KM12 colon and in the test on NCI/ADR-RES ovarian was > 100 µM throughout.
As to `Nc1nc(Cl)c(N=Nc2ccc(Cl)cc2)c(NCC2(CO)CC(OCc3ccccc3)C2)n1` (stereo not drawn), the TGI in the test with U251 CNS is 28.5 µM and > 100 µM and 36 µM; in the test on SF-539 CNS, 43.7 µM and > 100 µM and 33.1 µM; in the test with A549 NSCLC, 51.2 µM and > 100 µM and 32.1 µM; in the test on NCI-H522 lung, 4.26 µM; with NCI-H460 lung, 86.1 µM and > 100 µM and 17.7 µM; with K-562 leukemia, 10.3 µM and > 100 µM. For the same compound, the TGI in the test on KM12 colon is > 100 µM and 28 µM; with NCI/ADR-RES ovarian it was 77.8 µM and > 100 µM and 16.2 µM. Besides, the GI50 with SF-539 CNS is 13.7 µM and > 100 µM and 12.4 µM; in the test with A549 NSCLC, 14.7 µM and 62.7 µM and 13.8 µM; with NCI-H522 lung, 2.09 µM; in the test on NCI-H460 lung it was 7.43 µM and 29.4 µM and 3.85 µM; with K-562 leukemia, 2.76 µM; in the test on KM12 colon it was 20 µM and 41.3 µM and 7.74 µM. For the same compound, the GI50 with NCI/ADR-RES ovarian is 6.55 µM and 9.08 µM and 3.98 µM.
On to `COc1ccc(Cn2cc3c(c2-c2ccc(O)cc2)CCc2cnoc2-3)cc1`, for which the GI50 is 0.447 µM with U251 CNS; 0.273 µM in the test with SF-539 CNS; 0.477 µM in the test with A549 NSCLC; 0.0822 µM with NCI-H522 lung; 0.321 µM with NCI-H460 lung; 0.13 µM with K-562 leukemia. The GI50 in the test with KM12 colon is 0.241 µM; with NCI/ADR-RES ovarian, 0.19 µM. Besides, the TGI in the test with U251 CNS is 15.1 µM; in the test on SF-539 CNS it was 3.33 µM; with A549 NSCLC, 18.4 µM; in the test with NCI-H522 lung it was 0.596 µM; in the test on NCI-H460 lung, 4.45 µM; in the test with K-562 leukemia, 16.6 µM. For the same compound, the TGI with KM12 colon was 10.4 µM; in the test on NCI/ADR-RES ovarian it was 0.946 µM.
For `N#Cc1c(NC(=O)c2cccc3ccccc23)sc2c1CCCC2`, the GI50 was 0.0622 µM in the test with U251 CNS; 0.0274 µM with SF-539 CNS; 0.0788 µM with A549 NSCLC; 0.024 µM in the test with NCI-H522 lung; 0.0785 µM in the test with NCI-H460 lung; 0.0115 µM with K-562 leukemia. In addition, the values for the GI50 in the test on KM12 colon and in the test on NCI/ADR-RES ovarian were 0.105 µM and 0.0128 µM, respectively. Further, the TGI in the test on U251 CNS was > 25 µM; in the test on SF-539 CNS it was > 25 µM; in the test with A549 NSCLC, > 25 µM; in the test on NCI-H522 lung, 0.259 µM; in the test on NCI-H460 lung, > 25 µM; in the test with K-562 leukemia it was > 25 µM. Also, the TGI in the test with KM12 colon was > 25 µM; with NCI/ADR-RES ovarian it was 0.117 µM.
